Among the data in PubChem BioAssay AID212 (DTP/NCI, 2004) are T/C values, retold here.

The subject of this test is BDF1 mice, colon carcinoma 38 sc, T/C %. Briefly: NCI In Vivo Anticancer Drug Screen. Data for tumor model Colon Carcinoma 38 (subcutaneous) in B6D2F1 (BDF1) mice. The settings on record: endpoint: median tumor weight (est.), higher = larger tumour. In short, it runs like this:
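Ratio of survival or tumor size, compound-treated animals relative to vehicle controls, in tumor-bearing mice.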

The mark [1] stands for this setting: dose: 25.0 mg/kg/injection, schedule: Q07DX002 (ip), vehicle: saline.
Where [2] appears, read: dose: 50.0 mg/kg/injection, schedule: Q07DX002 (ip), vehicle: saline.
Where [3] appears, read: dose: 25.0 mg/kg/injection, schedule: Q07DX002 (ip), vehicle: saline with Tween-80.
Setting [4] is: dose: 50.0 mg/kg/injection, schedule: Q07DX002 (ip), vehicle: saline with Tween-80.
The mark [5] stands for this setting: dose: 200.0 mg/kg/injection, schedule: Q07DX002 (ip), vehicle: saline with Tween-80.
The mark [6] stands for this setting: dose: 200.0 mg/kg/injection, schedule: Q07DX002 (ip), vehicle: saline.

SMILES strings stand for the structures. “And” between values parts separate entries of the source, which are not always exact repeats. Identical values can stand only once. Records with an inconclusive call do not appear.

For the molecule `c1cc2n(n1)CCN2`, the T/C is, setting by setting: (dose: 6.25 mg/kg/injection, schedule: Q07DX002 (ip), vehicle: saline) 76 % of control; (dose: 12.5 mg/kg/injection, schedule: Q07DX003 (ip), vehicle: saline) 110 % of control; (dose: 25.0 mg/kg/injection, schedule: Q01DX005 (ip), vehicle: saline) 86 % of control; (dose: 25.0 mg/kg/injection, schedule: Q04DX003 (ip), vehicle: saline) 84 % of control; under setting [1], 94 % of control; (dose: 25.0 mg/kg/injection, schedule: Q07DX003 (ip), vehicle: saline) 92 % of control. Besides, the T/C was 36 % of control (dose: 50.0 mg/kg/injection, schedule: Q01DX005 (ip), vehicle: saline); 166 % of control under setting [2]; 74 % of control (dose: 50.0 mg/kg/injection, schedule: Q07DX003 (ip), vehicle: saline); 44 % of control (dose: 100.0 mg/kg/injection, schedule: Q01DX005 (ip), vehicle: saline); 42 % of control (dose: 100.0 mg/kg/injection, schedule: Q04DX003 (ip), vehicle: saline); 65 % of control (dose: 100.0 mg/kg/injection, schedule: Q07DX003 (ip), vehicle: saline). Besides, the T/C was 47 % of control (dose: 200.0 mg/kg/injection, schedule: Q01DX005 (ip), vehicle: saline); 97 % of control (dose: 200.0 mg/kg/injection, schedule: Q04DX003 (ip), vehicle: saline); 66 % of control (dose: 200.0 mg/kg/injection, schedule: Q07DX003 (ip), vehicle: saline); 75 % of control (dose: 400.0 mg/kg/injection, schedule: Q04DX003 (ip), vehicle: saline); 56 % of control (dose: 400.0 mg/kg/injection, schedule: Q07DX003 (ip), vehicle: saline).
For the molecule `c1ccc2c(c1)-c1ccccc1C1NC21` (configuration not stated), the T/C was 104 % of control (dose: 12.0 mg/kg/injection, schedule: Q07DX002 (ip), vehicle: saline with Tween-80); 117 % of control under setting [3]; 93 % of control under setting [4].
With `CSc1ccc2c(c1)C(N1CCN(C)CC1)Cc1ccccc1S2` (configuration not stated), under setting [4], the T/C was 68 % of control and 72 % of control.
With `COc1cc2c[n+](C)c3c4cc5c(cc4ccc3c2cc1OC)OCO5`, the T/C reads like this: (dose: 20.0 mg/kg/injection, schedule: Q07DX003 (ip), vehicle: saline with Tween-80) 110 % of control; (dose: 40.0 mg/kg/injection, schedule: Q07DX003 (ip), vehicle: saline with Tween-80) 97 % of control.
As to `Nc1cc2c3c(cccc3c1)C(=O)N(CCN1CCCC1)C2=O`, the T/C (dose: 15.0 mg/kg/injection, schedule: Q07DX002 (ip), vehicle: saline with Tween-80) is 75 % of control; the T/C under setting [3] was 117 % of control; the T/C (dose: 30.0 mg/kg/injection, schedule: Q07DX002 (ip), vehicle: saline with Tween-80) is 83 % of control; the T/C under setting [4] was 152 % of control; the T/C (dose: 60.0 mg/kg/injection, schedule: Q07DX002 (ip), vehicle: saline with Tween-80) was 73 % of control; the T/C (dose: 100.0 mg/kg/injection, schedule: Q07DX002 (ip), vehicle: saline with Tween-80) is 90 % of control. Moreover, the T/C is, setting by setting: (dose: 120.0 mg/kg/injection, schedule: Q07DX002 (ip), vehicle: saline with Tween-80) 62 % of control; under setting [5], 28 % of control.
Consider `CN(C)CCCNc1c2ccccc2nc2cccc([N+](=O)[O-])c12`, for which the T/C (dose: 0.03 mg/kg/injection, schedule: Q07DX002 (ip), vehicle: saline) is 112 % of control and 104 % of control; the T/C (dose: 0.06 mg/kg/injection, schedule: Q07DX002 (ip), vehicle: saline) is 116 % of control; the T/C (dose: 0.06 mg/kg/injection, schedule: Q07DX003 (ip), vehicle: saline) was 93 % of control; the T/C (dose: 0.12 mg/kg/injection, schedule: Q07DX003 (ip), vehicle: saline) was 98 % of control; the T/C (dose: 0.25 mg/kg/injection, schedule: Q07DX003 (ip), vehicle: saline) is 101 % of control.
As for `C(CC1CO1)C1CO1` (configuration not stated), the T/C was 172 % of control and 185 % of control (dose: 5.0 mg/kg/injection, schedule: Q07DX002 (ip), vehicle: Klucel (hydroxypropylcellulose) (HPC)); 106 % of control (dose: 10.0 mg/kg/injection, schedule: Q07DX002 (ip), vehicle: Klucel (hydroxypropylcellulose) (HPC)); 245 % of control (dose: 40.0 mg/kg/injection, schedule: Q07DX002 (ip), vehicle: Klucel (hydroxypropylcellulose) (HPC)); 115 % of control (dose: 80.0 mg/kg/injection, schedule: Q07DX002 (ip), vehicle: Klucel (hydroxypropylcellulose) (HPC)); 81 % of control (dose: 160.0 mg/kg/injection, schedule: Q07DX002 (ip), vehicle: Klucel (hydroxypropylcellulose) (HPC)).
`OCCOCCN1CCN(CCCN2c3ccccc3Sc3ccc(C(F)(F)F)cc32)CC1`: the T/C runs as follows: (dose: 12.5 mg/kg/injection, schedule: Q07DX002 (ip), vehicle: saline) 94 % of control; under setting [2], 99 % of control.
For the molecule `C=C1C(=O)OCC1(C(=O)OCC)C(=O)OCC`, the T/C reads like this: (dose: 12.5 mg/kg/injection, schedule: Q07DX002 (ip), vehicle: saline with Tween-80) 42 % of control and 62 % of control and 66 % of control; under setting [4], 88 % of control.
For `N/C=N/O`, the T/C is 124 % of control under setting [1]; 70 % of control under setting [2]; 97 % of control (dose: 100.0 mg/kg/injection, schedule: Q07DX002 (ip), vehicle: saline); 92 % of control under setting [6]; 56 % of control (dose: 400.0 mg/kg/injection, schedule: Q07DX002 (ip), vehicle: saline).
In the case of `Clc1ccc(C(c2ccccc2Cl)C(Cl)Cl)cc1` (configuration not stated), the T/C (dose: 25.0 mg/kg/injection, schedule: Q07DX003 (ip), vehicle: saline with Tween-80) was 39 % of control; the T/C (dose: 50.0 mg/kg/injection, schedule: Q07DX003 (ip), vehicle: saline with Tween-80) was 59 % of control; the T/C (dose: 100.0 mg/kg/injection, schedule: Q07DX003 (ip), vehicle: saline with Tween-80) was 80 % of control; the T/C (dose: 200.0 mg/kg/injection, schedule: Q07DX003 (ip), vehicle: saline with Tween-80) was 63 % of control; the T/C (dose: 400.0 mg/kg/injection, schedule: Q07DX003 (ip), vehicle: saline with Tween-80) was 95 % of control.
Consider `O=CC(NC(=O)N(CCCl)N=O)C(O)C(O)C(O)CO` (configuration not stated), for which the T/C runs as follows: (dose: 0.47 mg/kg/injection, schedule: Q07DX003 (ip), vehicle: saline) 102 % of control; (dose: 0.94 mg/kg/injection, schedule: Q07DX003 (ip), vehicle: saline) 98 % of control; (dose: 1.5 mg/kg/injection, schedule: Q07DX002 (ip), vehicle: saline) 105 % of control; (dose: 3.75 mg/kg/injection, schedule: Q07DX003 (ip), vehicle: saline) 68 % of control; (dose: 4.0 mg/kg/injection, schedule: Q07DX002 (ip), vehicle: saline) 92 % of control; (dose: 6.0 mg/kg/injection, schedule: Q07DX003 (ip), vehicle: saline) 68 % of control. Moreover, the T/C runs as follows: (dose: 7.5 mg/kg/injection, schedule: Q07DX003 (ip), vehicle: saline) 68 % of control; (dose: 8.0 mg/kg/injection, schedule: Q07DX002 (ip), vehicle: saline) 57 % of control; (dose: 12.0 mg/kg/injection, schedule: Q07DX003 (ip), vehicle: saline) 82 % of control; (dose: 15.0 mg/kg/injection, schedule: Q07DX003 (ip), vehicle: saline) 43 % of control; (dose: 16.0 mg/kg/injection, schedule: Q07DX002 (ip), vehicle: saline) 43 % of control; (dose: 24.0 mg/kg/injection, schedule: Q07DX003 (ip), vehicle: saline) 57 % of control.
Consider `Nc1nc(-c2cccc3ccccc23)cc2ccccc12`, for which the T/C under setting [3] was 108 % of control; the T/C under setting [4] was 123 % of control; the T/C under setting [5] was 77 % of control; the T/C (dose: 800.0 mg/kg/injection, schedule: Q07DX002 (ip), vehicle: saline with Tween-80) was 108 % of control.
`N=C1CCCS1`: under setting [6], the T/C is 101 % of control.
